{"source": "patent US9238055B2", "about": "“Peptide bone forming peptide 4 for promoting osteogenesis or vascularization and use thereof” (Chonnam National University Hospital, priority 2011, dated 2016)", "test_system": "mesenchymal stem cells", "assay": "MTT assay for cytotoxicity", "format": "cell-based, mouse", "settings": "at concentrations effective for promoting osteogenic differentiation; FIG. 3", "method": "At concentrations effective for calcium deposition, BFP 4 was analyzed for cytotoxicity. In this context, MTT ((3-(4,5-Dimethylthiazol-2-yl)-2,5-diphenyltetrazolium bromide, a yellow tetrazole) assay was performed using an MTT Cell Proliferation Assay Kit (Cayman Chemical) according to the instructions of the manufacturer.", "note": "Where no end group is shown, it is not given here."}
{"sequence": "FFKATEVHFRSIRST [BFP 4, Phe-Phe-Lys-Ala-Thr-Glu-Val-His-Phe-Arg-Ser-Ile-Arg-Ser-Thr]", "values": [{"measurement": "Cytotoxicity (MTT)", "value": "no cytotoxicity was detected"}]}
